Measured values as given in ChEMBL document CHEMBL1201862, “PubChem BioAssay data set” (2004).
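Briefly, cells in 96-well plates were exposed to five compound concentrations for 48 h, and endpoints were estimated by linear interpolation. At the GI50, growth is halved.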 Calls of active or inactive are those of the source. Rule as the data show it: active = GI50 up to about 1.1 µM and inactive = higher.

Experiments:
Experiment in all cases: DTP human tumour cell line panel, 48 h
SK-MEL-5 = test system: SK-MEL-5
HOP-62 = test system: HOP-62
SF-295 = test system: SF-295
SNB-75 = test system: SNB-75
HL-60 = test system: HL-60
COLO 205 = test system: COLO 205
OVCAR-5 = test system: OVCAR-5
M14 = test system: M14
OVCAR-8 = test system: OVCAR-8
HT-29 = test system: HT-29
SN12C = test system: SN12C
HCT-116 = test system: HCT-116
SR = test system: SR
CCRF-CEM = test system: CCRF-CEM
NCI-H226 = test system: NCI-H226
SK-MEL-28 = test system: SK-MEL-28
SW-620 = test system: SW-620
RPMI-8226 = test system: RPMI-8226
BT-549 = test system: BT-549

SMILES | GI50 (SK-MEL-5) | GI50 (HOP-62) | GI50 (SF-295) | GI50 (SNB-75) | GI50 (HL-60) | GI50 (COLO 205) | GI50 (OVCAR-5) | GI50 (M14) | GI50 (OVCAR-8) | GI50 (HT-29) | GI50 (SN12C) | GI50 (HCT-116) | GI50 (SR) | GI50 (CCRF-CEM) | GI50 (NCI-H226) | GI50 (SK-MEL-28) | GI50 (SW-620) | GI50 (RPMI-8226) | GI50 (BT-549)
CC(C)[C@H](NC(=O)OCc1ccccc1)C(=O)N[C@H](/C=C/C(=O)OC(C)(C)C)CO | > 100 µM (inactive) | > 100 µM (inactive) | > 100 µM (inactive) | 0.12 µM (active) | 57.1 µM (inactive) | 80.4 µM (inactive) | > 100 µM (inactive) | > 100 µM (inactive) | > 100 µM (inactive) | > 100 µM (inactive) | > 100 µM (inactive) | 71.9 µM (inactive) | > 100 µM (inactive) | 28.1 µM (inactive) | > 100 µM (inactive) | > 100 µM (inactive) | 92.9 µM (inactive) |  | 
CC(=O)c1sc2c(c1OC(=O)c1cccs1)c(=O)n(-c1ccccc1)c(=S)n2-c1ccccc1 | 12.1 µM (inactive) | 17 µM (inactive) | 2.62 µM (inactive) | 29.4 µM (inactive) | 26 µM (inactive) | 18 µM (inactive) | 3.29 µM (inactive) | 3.24 µM (inactive) | 5.01 µM (inactive) | 3.21 µM (inactive) | 3.94 µM (inactive) | 16.9 µM (inactive) |  | 3.9 µM (inactive) | 3.08 µM (inactive) | 2.99 µM (inactive) | 22.4 µM (inactive) | 4.32 µM (inactive) | 
OC(c1ccccc1)c1c(-c2ccccc2)[nH]c(-c2ccccc2)c1C(O)c1ccccc1 (stereo not drawn) | 2.55 µM (inactive) | 4.58 µM (inactive) | 3.75 µM (inactive) |  | 2.28 µM (inactive) | 1.74 µM (inactive) | 2.77 µM (inactive) | 3.66 µM (inactive) |  | 3.99 µM (inactive) | 2.38 µM (inactive) | 2.84 µM (inactive) | 4.1 µM (inactive) | 2.65 µM (inactive) | 2.4 µM (inactive) | 3.4 µM (inactive) | 4.9 µM (inactive) | 2.09 µM (inactive) | 
O=C(Nc1nc2ncn(CCOC(=O)c3ccccc3)c2c(=O)[nH]1)c1ccccc1 | 5.51 µM (inactive) | 20.4 µM (inactive) | 12.9 µM (inactive) | 18.9 µM (inactive) | 2.59 µM (inactive) | 8.47 µM (inactive) | > 100 µM (inactive) | 15.3 µM (inactive) | 33.3 µM (inactive) | 3.68 µM (inactive) | 11.8 µM (inactive) | 4.43 µM (inactive) | 5.35 µM (inactive) | 9.71 µM (inactive) | 28.4 µM (inactive) | 50.7 µM (inactive) | 4.98 µM (inactive) | 6.1 µM (inactive) | 
S=c1oc(CCCCCCCCc2nn(CNc3ccc(Cl)cc3)c(=S)o2)nn1CNc1ccc(Cl)cc1 | 3.27 µM (inactive) | 7.52 µM (inactive) | 4.92 µM (inactive) | > 100 µM (inactive) |  | 7.38 µM (inactive) | 60.5 µM (inactive) | 12 µM (inactive) |  | > 100 µM (inactive) | > 100 µM (inactive) | > 100 µM (inactive) |  |  | > 100 µM (inactive) | 20.3 µM (inactive) | > 100 µM (inactive) | 6.78 µM (inactive) | > 100 µM (inactive)
CC(C)C1SCc2nc3ccccc3n21 (stereo not drawn) | 16.4 µM (inactive) | 50.8 µM (inactive) | 30.5 µM (inactive) |  | 43 µM (inactive) | 12.7 µM (inactive) | 77.3 µM (inactive) | 33.4 µM (inactive) | 40.2 µM (inactive) | 40.4 µM (inactive) | 21.8 µM (inactive) | 30.6 µM (inactive) |  | 34.8 µM (inactive) | < 0.01 µM (active) | 68.1 µM (inactive) | 65.8 µM (inactive) | 31.5 µM (inactive) | 
Cc1cc(=O)[nH]c(-n2[nH]c(C)c(CCO)c2=O)n1 | > 100 µM (inactive) | > 100 µM (inactive) | > 100 µM (inactive) |  | > 100 µM (inactive) | > 100 µM (inactive) | > 100 µM (inactive) | > 100 µM (inactive) | > 100 µM (inactive) | > 100 µM (inactive) | > 100 µM (inactive) | > 100 µM (inactive) |  | > 100 µM (inactive) | > 100 µM (inactive) | > 100 µM (inactive) | > 100 µM (inactive) | > 100 µM (inactive) | 
O=C(O)/C=C/C(=O)O [FUMARIC ACID] | > 100 µM (inactive) | > 100 µM (inactive) | > 100 µM (inactive) | > 100 µM (inactive) | > 100 µM (inactive) | > 100 µM (inactive) | > 100 µM (inactive) | > 100 µM (inactive) | > 100 µM (inactive) | > 100 µM (inactive) | > 100 µM (inactive) | > 100 µM (inactive) | > 100 µM (inactive) | > 100 µM (inactive) | > 100 µM (inactive) | > 100 µM (inactive) | > 100 µM (inactive) | > 100 µM (inactive) | 
